According to ChEMBL document CHEMBL1148439, “A phenylnorstatine inhibitor binding to HIV-1 protease: geometry, protonation, and subsite-pocket interactions analyzed at atomic resolution” (J Med Chem, 2004):

Biological target: Human immunodeficiency virus type 1 protease (Human immunodeficiency virus 1, UniProt Q72874, V82A)
Experiment: Tested for inhibitor binding of Val82Ala mutant of HIV PR
Set-up: species or system human immunodeficiency virus type1

NC(=O)[C@H](CCC(=O)O)NC(=O)[C@H](CCC(=O)O)NC(=O)[C@H](Cc1ccccc1)NC(=O)[C@H](O)[C@H](Cc1ccccc1)NC(=O)OCc1ccccc1
Ki: 110 pM
